This is an account of results in patent US20220281931A1, “CHEMICALLY INDUCIBLE POLYPEPTIDE POLYMERIZATION” (Dana-Farber Cancer Institute, Inc., priority 2019, published 2022).

As a reminder, the EC50 is the concentration that produces a half-maximal response.

The structures appear in SMILES notation.

The subject of one test is BCL6 mRNA. The test can be described thus: Quantitative PCR of BCL6 mRNA. Particulars: SuDHL4Cas9 cells, 1 μM, 1 hour. Format: cell-based, human. The protocol:
1×10^6 SuDHL4Cas99 cells were treated with DMSO or 1 μM BI-3802 for 1 h, collected by centrifugation, washed with PBS, and flash frozen in dry ice. mRNA was isolated using the QIAGEN RNA kit (Qiagen, 74106). For cDNA synthesis, total RNA was reverse transcribed with SuperScript™ VILO™ Master Mix (Invitrogen, 11755050) before qPCR analysis with TaqMan Fast Advanced Master Mix (ThermoFisher Scientific, 4444557) for BCL6 (TaqMan, […], Life Technologies) and GAPDH (TaqMan, Hs02758991_g1). Reactions were run and analyzed on QStudio 6 FLX real-Time PCR System (ThermoFisher Scientific).

In test [1] the target is T1, eGFPBCL6 stability reporter (Homo sapiens, UniProt P41182).
T1 construct: the full length BCL6 (BCL6^FL) was fused in-frame with eGFP; expressed in transfected cells; host or cells: HEK293TCas9 cells, lentiviral transduction (Artichoke vector)
The test can be described thus: Degradation of BCL6 reporter constructs in HEK293T cells (flow cytometry). Format: cell-based. Particulars: HEK293T cells, 1 μM, 1 hour. The protocol: Lentivirus was packaged in HEK293T cells using TransIT (Mirus) and subsequently used for spin infection.
HEK293TCas9 cells expressing indicated constructs in “Artichoke” or “Cilantro2” stability reporter vectors (PGK or SFFV Target-eGFP-IRES-mCherry, puromycin resistance) were plated in 96 well plates and treated for indicated times. BCL6-eGFP and mCherry expression were quantified by flow cytometry (CytoFLEX, Beckman or LSR Fortessa flow cytometer BD Biosciences). All degradation assays were done in at least triplicates. Geometric means of eGFP and mCherry fluorescent signals for live and mCherry positive cells were exported using flow cytometry analysis software (FlowJo, BD). Ratios of eGFP to mCherry were normalized to the average of DMSO-treated controls.

The next test addresses T2, endogenous BCL6 (Homo sapiens, UniProt P41182).
T2 construct: endogenous in cells; host or cells: SuDHL4 / SuDHL4Cas9 cells
Put plainly: Immunofluorescence of endogenous BCL6 in SuDHL4 cells. The format is cell-based. The note with it: 1 μM BI-3802, 1 hour. The protocol: (§1) In vitro ubiquitination for identification of compatible E2 conjugating enzymes was performed by following the manufacturer's instructions (K-982, Boston Biochem), using Strep II-Avi-BCL6^5-360 and Flag-SIAH1^FL. Time-course in vitro ubiquitination was performed by mixing the substrate (BCL6, 2 μM), E3 (SIAH, 0.5 μM), E1 (UBA1, Boston Biochem, 0.2 μM, E2 (UBE2D1, Boston Biochem, 0.5 μM), and ubiquitin (Boston Biochem, 50 μM), with a reaction buffer (B-71, Boston Biochem) containing BI-3802 or DMSO (normalized to 1% DMSO) in 15 μL volume each. Reactions were initiated by adding 5 μL of Mg-ATP solution (B-20, Boston Biochem), incubated for up to 60 min at 37° C., and analyzed by western blot using Strep tag II Antibody HRP conjugate (71591-3, Sigma) at 1:4,000. 0.8×10^6 cells/mL SuDHL4 cells were treated with DMSO or 0.5 μM E1 Inhibitor (3 h)+1 μM BI-3802 (I h) and 200 μL of the cell suspension was immobilized on a slide using the Cytospin™ 4 Cytocentrifuge (CytoSpin 4, A78300003; 6000 rpm, 6 min). Medium was aspirated and cells were fixed with 4% formaldehyde diluted in warm PBS for 15 min at room temperature. Slides were washed three times for 5 min with PBS, blocked and permeabilized with blocking solution (5% Normal Goat Serum (Cell Signaling), 0.3% Triton X-100 in PBS) for 60 min and stained with anti-BCL6 antibody in blocking solution overnight at 4° C. […]

In a further test the target is T3, BCL6^5-360 (Homo sapiens, UniProt P41182).
T3 construct: size-exclusion chromatogram of purified BCL6^5-360 in the presence of DMSO; made in house; host or cells: Trichoplusia ni High Five insect cells, baculovirus
The test can be described thus: Negative stain electron microscopy of BCL6. The format is biochemical. The note with it: BCL6^5-360, 2 μM or 20 μM BI-3802. The protocol: The incubated protein samples were rapidly diluted to 10 μg/mL (sample treated with DMSO) or 50 μg/ml (samples treated with BI-3802). A 5 μL aliquot was applied to glow-discharged 400-mesh carbon-coated nickel grids (CF400-NI-UL, Electron Microscopy Sciences). After incubating for 1 min, protein was wicked off with a filter paper and the grid was washed twice with distilled water, followed by two rounds of staining with 2% uranyl acetate for 5 s and 20 s, respectively. Grids were imaged at a nominal magnification of 40,000× on a JEOL JEM-1400Plus operated at 80 kV.

The target in test [2] is T4, StrepBCL6^5-360 / full length SIAH1 (Homo sapiens, UniProt P41182).
T4 construct: using Strep II-Avi-BCL6^5-360 and Flag-SIAH1^FL; made in house; host or cells: Trichoplusia ni High Five insect cells, baculovirus
The test can be described thus: In vitro ubiquitination of BCL6 by SIAH1. The format is biochemical. Particulars: recombinant polypeptides, 1 μM BI-3802 vs DMSO. The method, then: as §1

The target of a further test is T5, BCL6^5-360 - SIAH1^SBD (Homo sapiens, UniProt P41182).
T5 construct: 200 nM BodipyFL-labeled BCL6^5-360 variants; His6 (N); Spy (C); made in house; host or cells: Trichoplusia ni High Five insect cells, baculovirus
The test can be described thus: BCL6-SIAH1 TR-FRET. The format is biochemical. Particulars: preassembled 0.2 μM BodipyBCL6^5-360 and 0.2 μM BiotinSIAH1^SBD, in vitro; read-out: EC50 for increase of the BCL6-SIAH1 interaction. The method, then: After dispensing the assay mixture (15 μL volume), increasing concentrations of compounds were dispensed in a 384-well microplate (Corning, 4514) using a D300e Digital Dispenser (HP) normalized to 1% DMSO. After excitation of terbium fluorescence at 337 nm, emission at 490 nm (terbium) and 520 nm (BodipyFL) were recorded with a 70 us delay over 600 μs to reduce background fluorescence, and the reaction was followed over 60 cycles of each data point using a PHERAstar FS microplate reader (BMG Labtech). The TR-FRET signal of each data point was extracted by calculating the 520/490 nm ratio. The half-maximal effective concentration (EC50) values were estimated using dose-response analysis standard four parameter log-logistic curves, fitted to the experimental data using […] package. […] After dispensing the assay mixture, increasing concentration of BodipyFL-BCL6^5-360 was added to the SIAH1 mixture in a […] (7.5 μL each, total 15 μL assay volume). The 520/490 nm ratios were measured in as described above and plotted to calculate the KD^APP values using dose-response analysis standard four parameter log-logistic curves using […] package.

`CNC(=O)COc1cc2cc(Nc3nc(N4C[C@H](C)C[C@H](C)C4)ncc3Cl)ccc2n(C)c1=O` [BI-3802, 2-((6-((5-chloro-2-((3S,5R)-3,5-dimethylpiperidin-1-yl)pyrimidin-4-yl)amino)-1-methyl-2-oxo-1,2-dihydroquinolin-3-yl)oxy)-N-methylacetamide]: in the test on BCL6 mRNA, the “BCL6 mRNA expression” value is “did not alter BCL6 mRNA expression”. For the same molecule, in test [1], the “degradation of full-length BCL6 reporter (eGFPBCL6^FL)” value was “induced degradation of the full-length BCL6 reporter”. Moreover, on endogenous BCL6, the “endogenous BCL6 foci formation” value was “endogenous BCL6 also formed foci”. Also, the “higher-order BCL6 structures by negative stain EM” value on BCL6^5-360 was “formation of regular structures with a sinusoidal shape was observed”. The “rate and magnitude of BCL6 ubiquitination by SIAH1” value in test [2] is on record as “accelerated”. Besides, the concentration for a half-maximal effect (EC50) at BCL6^5-360 - SIAH1^SBD is 64 nM.
